Values of other authors, collected in patent US8088597B2, “Blood pressure lowering peptides from glycomacropeptide” (DSM IP Assets B.V., priority 2005, dated 2012).

Columns and labels:
[1] = test system: spontaneously hypertensive rats; conditions: tripeptides derived from lactic acid bacteria fermented bovine milk; Nakamura et al. 1995
ACE = ACE (Homo sapiens, UniProt P12821); conditions: reported in the literature
Sequence of ACE (P12821 30-1306, species assumed): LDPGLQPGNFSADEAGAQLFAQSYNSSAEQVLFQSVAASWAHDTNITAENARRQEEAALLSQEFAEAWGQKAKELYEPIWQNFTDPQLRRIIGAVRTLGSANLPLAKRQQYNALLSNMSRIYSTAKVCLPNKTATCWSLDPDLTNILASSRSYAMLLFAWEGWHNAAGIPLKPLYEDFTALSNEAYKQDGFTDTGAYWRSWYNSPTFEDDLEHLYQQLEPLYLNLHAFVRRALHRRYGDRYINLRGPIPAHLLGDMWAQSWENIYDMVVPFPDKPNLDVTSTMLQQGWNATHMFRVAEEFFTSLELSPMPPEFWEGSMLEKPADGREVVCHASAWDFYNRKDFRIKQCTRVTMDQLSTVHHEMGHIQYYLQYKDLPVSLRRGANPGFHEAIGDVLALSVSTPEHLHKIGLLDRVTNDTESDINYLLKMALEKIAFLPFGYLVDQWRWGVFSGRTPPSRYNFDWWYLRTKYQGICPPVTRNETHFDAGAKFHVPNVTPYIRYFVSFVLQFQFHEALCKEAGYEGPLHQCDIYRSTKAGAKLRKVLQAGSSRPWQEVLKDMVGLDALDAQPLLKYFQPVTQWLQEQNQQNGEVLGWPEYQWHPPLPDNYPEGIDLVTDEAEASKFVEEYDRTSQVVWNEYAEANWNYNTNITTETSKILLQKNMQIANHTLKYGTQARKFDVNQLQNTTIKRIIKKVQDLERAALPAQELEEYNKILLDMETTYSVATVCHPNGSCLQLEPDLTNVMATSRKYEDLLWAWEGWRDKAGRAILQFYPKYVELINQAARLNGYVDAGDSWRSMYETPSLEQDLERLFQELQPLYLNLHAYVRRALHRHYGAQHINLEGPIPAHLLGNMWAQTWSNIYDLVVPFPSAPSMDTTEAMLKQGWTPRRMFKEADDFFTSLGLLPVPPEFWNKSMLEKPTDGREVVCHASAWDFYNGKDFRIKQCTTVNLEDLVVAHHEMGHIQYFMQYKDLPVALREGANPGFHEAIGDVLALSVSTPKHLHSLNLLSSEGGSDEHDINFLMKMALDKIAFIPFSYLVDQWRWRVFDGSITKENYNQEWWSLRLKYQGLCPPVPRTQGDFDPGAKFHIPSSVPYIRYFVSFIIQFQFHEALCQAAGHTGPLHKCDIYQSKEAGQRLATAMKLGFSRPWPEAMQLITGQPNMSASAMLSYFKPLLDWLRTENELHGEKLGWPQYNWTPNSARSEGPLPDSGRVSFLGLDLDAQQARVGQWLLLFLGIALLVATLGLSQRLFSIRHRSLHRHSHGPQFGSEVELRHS

Substance	antihypertensive effects [1]	ACE inhibiting activity (ACE)
Ile-Pro-Pro	confirmed	Strong ACE inhibiting activities
Leu-Pro-Pro		Strong ACE inhibiting activities
Val-Pro-Pro	confirmed	Strong ACE inhibiting activities
